Experimental data as given in paper PMC10515483, “Structure–Reactivity Studies of 2-Sulfonylpyrimidines Allow Selective Protein Arylation” (Bioconjugate Chemistry, 2023).

Assay: GSH arylation rate constants (NMR; UV-vis for fast warheads)
Type: physicochemical
Design: key to rate constant (k) for the reaction with GSH / k: NR = no reaction
Conditions: for reactivity with GSH (in words): up to 6 h; for k: Table S8, rate constants obtained at pH = 7; for k change (vs ref): ratio to rate constant of 4q, acceleration (+) or deceleration (-)
Excerpt: We employed nuclear magnetic resonance (NMR) and UV–vis to quantify the reactivity of our 2-SP derivatives and other representative electrophiles (Figure 2) against cysteine. NMR allowed straightforward determination of reaction rate constants through dual monitoring of the consumption of the warhead and formation of the product by integration of their respective NMR signals (Figures S1–S3). It simultaneously provided a direct readout on reaction specificity and hydrolytic stability of the warhead. All measurements were carried out in KPi buffer in the presence of 5% d^6-dmso, which is generally well-tolerated by a wide range of proteins in in vitro studies. N-acetylcysteine methylester (NACME) and L-glutathione (GSH) are useful model cysteine nucleophiles for in vitro studies of electrophilic agents.[32] Mixing reference electrophile 2-methylsulfonylpyrimidine (4q) with NACME or GSH in a 1:10 ratio (pseudo-first-order conditions) allowed extraction of accurate and reproducible second order rate constants (k).
Figure 3 In vitro determination of electrophilic reactivity of compounds. (A) NMR assay setup for warhead/GSH reaction rate constant determination and chemoselectivity monitoring, over a 6 h time scale. Purple bead = GSH. Hydrolytic stability was determined in the same way over 36 h. d^4-Trimethylsilylpropanoate (TMSP, blue box) was used as an internal standard for monitoring the warhead solubility. Second-order reaction rate constants (k) were obtained from their pseudo-first-order counterparts (k′), by time-dependent normalized integration of the disappearing warhead signals. […] (B) Experimental second-order rate constants (y axis, log10 scale) for the reaction of representative 2-SP derivatives (left, 11 out of ca. 40 examples) and previously reported heteroarylsulfones (right) with GSH in a KPi buffer, pH 7.0, 20 °C. All rate constants were calculated as an average of at least two independent measurements. Numerical values and standard deviations at both pH 7.0 and 6.5, along with a full list of 2-SPs and other electrophile types tested, are presented in Tables S2–S6 and Figure S4. The horizontal dashed line marks the reaction rate of 2-methylsulfonylpyrimidine at pH 7.0, as a reference when comparing with other reagents (see main text).
To establish an accurate structure–reactivity profile of 2-SP reagents, we systematically determined their reaction rate constants for the arylation of GSH by NMR, at pH 7.0 and 6.5. This was a prerequisite to (i) quantify the influence of substitution on reaction rates; (ii) accurately assess the tunability and chemoselectivity of 2-SPs for cysteine arylation; (iii) determine the influence of pH on the reaction rates to further inform on the precise reaction mechanism; and (iv) benchmark the overall performance of 2-SPs with those of previously reported fast reacting heteroarylsulfones and other common cysteine reactive warheads (Figure 2C,D).

[1] = pH 6.5, by NMR, KPi buffer, 5% DMSO-d6
[2] = pH 7.0, by NMR, KPi buffer, 5% DMSO-d6

SMILES	rate constant (k) for the reaction with GSH [1]	rate constant (k) for the reaction with GSH [2]	also measured
COc1cc(OC)nc(SC)n1 [2f]	NR	NR	–
CSc1nccc(-c2ccccc2)n1 [2e]	NR	NR	–
CSc1nccc(N)n1 [2g]	NR	NR	–
COc1cnc(SC)nc1 [2n]	NR	NR	–
CSc1nccc(C(N)=O)n1 [2j]	NR	NR	–
NC(=O)c1ccnc(Cl)n1 [1j]	NR	NR	–
Cc1cnc(Cl)nc1 [1o]	NR	NR	–
COc1ccnc(Cl)n1 [1b]	NR	NR	–
CSc1nccc(C)n1 [2c]	NR	NR	–
O=C(O)c1nc(Cl)ncc1Cl [1h]	NR	NR	–
CS(=O)(=O)c1ncc(F)cn1 [4r]	Multiple	Multiple	–
Nc1ncccn1 [compound 17, reference compound]	–	NR	–
COC(=O)c1ccnc(Cl)n1 [1k]	NR	NR	–
O=C1C=CC(=O)N1Cc1ccccc1 [compound 21, N-benzylmaleimide, reference compound]	–	Multiple products	reactivity with GSH (in words) (KPi buffer): heterogeneous mixture of succinimidyl products; second order rate constant k with GSH (pH 7.0, KPi buffer): > 0.5 M^–1 s^–1
COC(=O)c1cnc(Cl)nc1 [1y]	Ca. 11 mM-1.s-1	Ca. 55 mM-1.s-1	rate relative to 5-NO2-MSBT / nitro-MSBT (10) (in words) (in vitro): an order of magnitude
Oc1ncccn1 [compound 16, reference compound]	–	NR	–
CSc1nccc(C(=O)O)n1 [2d]	NR	NR	–
CSc1ncc([N+](=O)[O-])cn1 [2m]	NR	NR	–
O=C(O)c1cnc(Cl)nc1 [1v]	Ca. 0.14 mM-1.s-1	Ca. 0.65 mM-1.s-1	–
c1ccc(Sc2ncccn2)cc1 [3d]	–	NR	–
CC(C)(C)Sc1ncccn1 [3a]	–	NR	–

SMILES	rate constant (k) for the reaction with GSH [1]	rate constant (k) for the reaction with GSH [2]	also measured
O=C(O)c1ccnc(Cl)n1 [1d]	NR	NR	–
Clc1ncc(Br)cn1 [1t]	Ca. 0.025 mM-1.s-1	Ca. 0.15 mM-1.s-1	–
COC(=O)c1ccnc(SC)n1 [2k]	NR	NR	–
CS(=O)(=O)c1cnccn1 [compound 18]	NR	NR	reactivity with GSH (in words) (KPi buffer): completely switched off reactivity
FC(F)(F)c1ccnc(Cl)n1 [1l]	0.00045 M⁻¹ s⁻¹	0.001 ± 0.0005 M⁻¹ s⁻¹	–
CCCCSc1ncccn1 [3c]	–	NR	–
CSc1ncc(F)cn1 [2r]	NR	NR	–
OB1OCc2ccccc21 [compound 23, reference compound]	–	–	rate constant (k) for the reaction with GSH (pH 7): NR
Clc1nccc(-c2ccccc2)n1 [1e]	NR	NR	–
Fc1ncccn1 [compound 13, reference compound]	–	NR	k: NR
Clc1ncccn1 [1q]	NR	NR	reactivity with GSH (in words) (KPi buffer): failed to induce observable arylation of GSH; k: NR
CSc1ncc(C)cn1 [2o]	NR	NR	–
CS(=O)(=O)c1ncc(Cl)c(C(=O)O)n1 [4h]	–	–	k change (vs ref) (pH 7.0): +7 fold
COC(=O)c1cnc(SC)nc1 [2y]	NR	Ca. 0.020 mM-1.s-1	–
Cc1ccnc(Cl)n1 [1c]	NR	NR	–
Fc1cnc(Cl)nc1 [1r]	NR	NR	–
Brc1ncccn1 [compound 14, reference compound]	–	–	k: NR
COc1cc(OC)nc(Cl)n1 [1f]	NR	NR	–
c1ccc(C2CO2)cc1 (stereo not drawn) [compound 24, reference compound]	–	NR	reactivity with GSH (in words) (KPi buffer): none
O=[N+]([O-])c1cnc(Cl)nc1 [1w]	NR	NR	–
Cc1cc(C)nc(Cl)n1 [1a]	NR	NR	–

SMILES	rate constant (k) for the reaction with GSH [1]	rate constant (k) for the reaction with GSH [2]	also measured
CSc1ncc(C(F)(F)F)cn1 [2x]	NR	NR	–
CSc1ncc(Br)cn1 [2t]	NR	NR	–
O=C(c1ccccc1)C(F)(F)F [compound 25, reference compound]	–	NR	reactivity with GSH (in words) (KPi buffer): none
C=CC(=O)Nc1ccccc1 [compound 22, reference compound]	–	NR	reactivity with GSH (in words) (KPi buffer): none
CSc1nc(C)cc(C)n1 [2a]	NR	NR	–
Clc1cnc(Cl)nc1 [1s]	Ca. 0.07 mM-1.s-1	Ca. 0.26 mM-1.s-1	–
CSc1ncc(Cl)cn1 [2s]	NR	NR	–
Nc1cnc(Cl)nc1 [1m]	NR	NR	–
COc1cnc(Cl)nc1 [1n]	NR	NR	–
COc1ccnc(SC)n1 [2b]	NR	NR	–
O=S(=O)(F)c1ccccc1 [compound 26, reference compound]	–	NR	reactivity with GSH (in words) (KPi buffer): none
CC1(C)S[C@@H]2[C@H](N)C(=O)N2[C@H]1C(=O)O [compound 27, reference compound]	–	NR	reactivity with GSH (in words) (KPi buffer): none
CSc1nccc(C(F)(F)F)n1 [2l]	NR	NR	–
CSc1ncc(Br)c(C(=O)O)n1 [2i]	NR	NR	–
CSc1ncccn1 [2q]	NR	NR	k: NR
CS(=O)(=O)c1nc2ccc([N+](=O)[O-])cc2s1 [compound 10, 2-(methylsulfonyl)-6-nitrobenzo[d]thiazole, reference compound]	–	–	rate constant (k) for the reaction with GSH (pH 6.5, measured by UV titrations): 290 ± 130 M⁻¹ s⁻¹; second order rate constant k with GSH (pH 7.0, KPi buffer): ≈ 1200 M^–1 s^–1; k change (vs ref) (pH 7.0): +44,000 fold
Clc1ncc(-c2ccccc2)cn1 [1p]	NR	NR	–
Nc1ccnc(Cl)n1 [1g]	NR	NR	–
CSc1ncc(Cl)c(C(=O)O)n1 [2h]	NR	NR	–
O=C(O)c1nc(Cl)ncc1Br [1i]	NR	NR	–
